We go through ten compounds from patent US6887896B1, “7-[(7-Alkoxy)-chrom-3-en-6-yl]-heptatrienoic acid and 7-[(3-alkoxy)-5,6-dihydronaphthalen-2-yl]-heptatrienoic acid derivatives having serum glucose reducing activity” (Allergan, Inc., priority 2003, dated 2005).

In one assay the target is T1, RARβ (Homo sapiens, UniProt P10826).
T1 sequence (P10826 183-417 limits assumed): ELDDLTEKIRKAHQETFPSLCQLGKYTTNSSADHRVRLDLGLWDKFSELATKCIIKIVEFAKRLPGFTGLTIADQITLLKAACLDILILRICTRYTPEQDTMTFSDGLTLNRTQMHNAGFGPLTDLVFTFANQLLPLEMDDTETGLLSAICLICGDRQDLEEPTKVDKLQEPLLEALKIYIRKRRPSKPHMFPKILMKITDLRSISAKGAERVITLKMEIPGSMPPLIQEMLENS
Put plainly: chimeric receptor transactivation assay, RARβ. The assay is classed as cell-based. The note with it: for EC50: chimeric receptor transactivation, read-out: RAR Trans. EC50 β; for Emax: percentage compared to the standard compound, read-out: RAR Trans. efficacy (number in parentheses) β. From the text:
Specifically, one such assay is a chimeric receptor transactivation assay which tests for agonist-like activity in the R RAPE and RAR7 receptor subtypes, and which is based on work published by Feigner, P. L. and Holm, M (1989) Focus, 112 is described in detail in U.S. Pat. No. 5,455,265. The specification of U.S. Pat. No. 5,455,265 is hereby expressly incorporated by reference. A holoreceptor transactivation assay and a ligand binding assay which measure the antagonist/agonist like activity of the compounds of the invention, or their ability to bind to the several retinoid receptor subtypes, respectively, are described in published PCT Application No. WO WO93/11755 (particularly on pages 30-33 and 37-41) published on Jun. 24, 1993, the specification of which is also incorporated herein by reference. A detailed experimental procedure for holoreceptor transactivations has been described by Heyman et al. Cell 68, 397-406, (1992); Allegretto et al. J. Biol. Chem. 268, 26625-26633, and Mangelsdorf et al. The Retinoids: Biology, Chemistry and Medicine, pp 319-349, Raven Press Ltd., New York, which are expressly incorporated herein by reference. The results obtained in this assay are expressed in EC50 numbers, as they are also in the chimeric receptor transactivation assay. The results of the ligand binding assay are expressed in Ki numbers. (See Cheng et al. Biochemical Pharmacology Vol. 22 pp 3099-3108, expressly incorporated herein by reference.)
Efficacy in a transactivation assay is expressed as a percentage of the maximum potency attained by the compound compared to a standard which, in this case, is the compound named (2E,4E,1′S,2′S)-3-methyl-5-[2′-methyl-2′-(5,5,8,8-tetramethyl-5,6,7,8-tetrahydro-naphthalen-2-yl)-cyclopropyl]-penta-2,4-dienoic acid. This standard compound is described in U.S. Pat. No. 6,114,533.
The specification of this application for patent is organized in several sections in accordance with structural Formulas A through F each of which discloses a group of preferred compounds within the scope of the invention. Tables that disclose the activity of certain exemplary compounds of the invention in the above-described RXR receptor transactivation and binding assays are found in the corresponding sections. […] The transactivation data pertaining to the activation of RXR receptors were obtained in the holoreceptor assay.
Generally speaking, in the tables disclosing the results of transactivation and binding assays the numbers in parentheses indicate efficacy as a percentage compared to the standard compound, (2E,4E,1′S,2′S)-3-methyl-5-[2′-methyl-2′-(5,5,8,8-tetramethyl-5,6,7,8-tetrahydro-naphthalen-2-yl)cyclopropyl]-penta-2,4-dienoic acid and the other numbers indicate the measured EC50 and K; in nanomolar concentration.

The target of a further assay is T2, RXRβ (UniProt P28704).
T2 sequence (P28704 1-520): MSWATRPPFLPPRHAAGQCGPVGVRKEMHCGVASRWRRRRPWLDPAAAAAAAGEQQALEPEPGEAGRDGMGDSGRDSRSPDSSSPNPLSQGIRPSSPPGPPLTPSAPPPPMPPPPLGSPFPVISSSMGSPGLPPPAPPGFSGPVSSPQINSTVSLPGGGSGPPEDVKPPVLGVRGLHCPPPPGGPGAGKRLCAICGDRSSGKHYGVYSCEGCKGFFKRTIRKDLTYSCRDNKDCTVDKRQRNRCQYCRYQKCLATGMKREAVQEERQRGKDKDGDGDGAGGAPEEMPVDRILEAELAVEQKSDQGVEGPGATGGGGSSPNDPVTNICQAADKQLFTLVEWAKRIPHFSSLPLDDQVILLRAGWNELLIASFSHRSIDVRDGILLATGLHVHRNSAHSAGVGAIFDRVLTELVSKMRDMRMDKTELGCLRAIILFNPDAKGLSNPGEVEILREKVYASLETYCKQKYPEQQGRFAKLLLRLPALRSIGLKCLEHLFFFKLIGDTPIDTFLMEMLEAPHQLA
Description: ligand binding assay, RXRβ. The note with it: for Ki: read-out: RXR Bind Ki β; for Kd: Table 9 (Formula F), read-out: RXR β Kd. The method, boiled down:
(§1)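 Binding of compounds to several retinoid receptor subtypes was measured. Results are given as Ki values in nanomolar concentration, derived per Cheng et al.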

For another assay, the target named is T3, RARγ (Homo sapiens, UniProt P13631).
T3 sequence (P13631 1-454): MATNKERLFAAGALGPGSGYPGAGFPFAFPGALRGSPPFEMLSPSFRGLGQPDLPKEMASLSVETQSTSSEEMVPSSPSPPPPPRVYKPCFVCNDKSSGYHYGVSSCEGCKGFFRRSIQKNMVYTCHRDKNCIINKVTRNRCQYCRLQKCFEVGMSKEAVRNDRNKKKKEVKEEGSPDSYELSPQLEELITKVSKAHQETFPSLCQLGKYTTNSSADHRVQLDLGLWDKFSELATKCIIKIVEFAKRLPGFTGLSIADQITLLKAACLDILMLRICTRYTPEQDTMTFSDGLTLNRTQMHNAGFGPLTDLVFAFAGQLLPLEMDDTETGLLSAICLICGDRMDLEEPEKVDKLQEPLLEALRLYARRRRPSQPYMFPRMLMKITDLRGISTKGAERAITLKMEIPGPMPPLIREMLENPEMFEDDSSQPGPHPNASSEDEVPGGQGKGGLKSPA
Description: ligand binding assay, RARγ. To be noted: for Ki: read-out: RAR Bind. Ki γ; for Kd: Table 9 (Formula F), read-out: RAR γ Kd. The method, boiled down: as §1

For the next assay, the target named is T4, RXRγ (UniProt P28705).
T4 sequence (P28705 1-463): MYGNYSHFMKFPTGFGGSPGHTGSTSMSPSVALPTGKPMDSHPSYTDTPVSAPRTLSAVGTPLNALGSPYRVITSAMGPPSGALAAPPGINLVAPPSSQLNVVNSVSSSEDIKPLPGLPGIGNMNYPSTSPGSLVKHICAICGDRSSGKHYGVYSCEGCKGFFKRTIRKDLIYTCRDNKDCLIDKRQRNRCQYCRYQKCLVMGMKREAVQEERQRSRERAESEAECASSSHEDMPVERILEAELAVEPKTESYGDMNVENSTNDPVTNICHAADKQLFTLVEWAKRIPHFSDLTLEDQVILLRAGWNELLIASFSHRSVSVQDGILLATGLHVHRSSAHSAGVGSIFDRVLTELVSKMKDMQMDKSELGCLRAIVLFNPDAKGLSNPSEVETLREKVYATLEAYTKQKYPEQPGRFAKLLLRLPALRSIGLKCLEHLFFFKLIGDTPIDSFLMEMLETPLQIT
Description: holoreceptor transactivation assay, RXRγ. The format is cell-based. To be noted: for EC50: holoreceptor transactivation, read-out: RXR Trans. EC50 γ; for RXR Trans. efficacy (number in parentheses) γ: percentage compared to the standard compound. The method, boiled down:
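RXR activation measured in holoreceptor transactivation assays; RAR subtypes in chimeric receptor transactivation assays. Values are EC50 in nM, with efficacy as percentage of maximal activity of a reference cyclopropyl-pentadienoic acid RXR agonist.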

As usually defined, the EC50 is the midpoint of the concentration-response curve. By Ki is commonly meant the dissociation constant of the complex between target and ligand, obtained from inhibition or displacement. As for `CCOc1cc2c(cc1\C(C)=C(F)/C=C/C(C)=C/C(=O)O)C(C)=CCC2(C)C`, at RARβ, the EC50 worked out at 316 nM and the Emax came out at 26%. Also, at RXRβ, the Ki amounted to 15 nM. In addition, the Ki at RARγ was 1.2 µM. At RXRγ, the EC50 is 3 nM and the “RXR Trans. efficacy (number in parentheses) γ” value (from here on “RXR Trans. efficacy”) was 70%.

As to `COc1cc2c(cc1\C(C)=C(F)/C=C/C(C)=C/C(=O)O)C(C(C)C)=CC(C)(C)O2` [Compound 121, (2E,4E,6E)-6-Fluoro-7-(4-isopropyl-7-methoxy-2,2-dimethyl-2H-chromen-6-yl)-3-methyl-octa-2,4,6-trienoic acid], the concentration for a half-maximal effect (EC50) at RARβ was 46600 nM; at RXRγ, 10 nM. The Ki at RXRβ was determined as 33 nM; at RARγ, 8.8 µM. Besides, the “RXR Trans. efficacy” value on RXRγ is on record as 79%.

Turning to `COc1c(\C(C)=C/C=C/C(C)=C/C(=O)O)cc2c(c1Cl)OC(C)(C)C=C2C(C)C` [Compound 49, 7-(8-Chloro-4-isopropyl-7-methoxy-2,2-dimethyl-2H-chromen-6-y)-3-methyl-octa-2E,4E,6Z-trienoic acid], at RARβ, the 50% effective concentration (EC50) was 132 nM and the Emax turned out to be 12%. Also, the Ki on RXRβ was 20 nM. The inhibitory constant (Ki) on RARγ was over 10 µM. In addition, on RXRγ, the EC50 came out at 0.3 nM and the “RXR Trans. efficacy” value is reported as 97%.

Regarding `CC/C(=C(F)/C=C/C(C)=C/C(=O)O)c1cc2c(cc1OC)OC(C)(C)C=C2C(C)(C)C` [Compound 131, 7-(4-tert-Butyl-7-methoxy-2,2-dimethyl-2H-chromen-6-yl)-6-fluoro-3-methyl-nona-2E,4E,6E-trienoic acid], on RARβ, the EC50 worked out at 116 nM and the Emax worked out at 13%. Further, on RXRβ, the inhibition constant Ki worked out at 94 nM. Moreover, the Ki on RARγ amounted to 3.3 µM. On RXRγ, the EC50 was determined as 8 nM and the “RXR Trans. efficacy” value is listed as 53%.

Consider `CCC1=CC(C)(C)Oc2cc(OC)c(\C(C)=C/C=C/C(C)=C/C(=O)O)cc21` [Compound 42, 7-(4-Ethyl-7-methoxy-2,2-dimethyl-2H-chromen-6-yl)-3-methyl-octa-2E,4E,6Z-trienoic acid], for which, at RARβ, the EC50 worked out at 845 nM and the Emax was found to be 34%. The Ki at RXRβ stood at 228 nM. Moreover, the Ki on RARγ was over 10 µM. On RXRγ, the EC50 worked out at 13 nM and the “RXR Trans. efficacy” value is recorded as 125%.

On to `CC/C(=C(F)/C=C/C(C)=C/C(=O)O)c1cc2c(cc1OC)OC(C)(C)C=C2C` [Compound 129, 6-Fluoro-7-(7-methoxy-2,2,4-trimethyl-2H-chromen-6-yl)-3-methyl-nona-2E,4E,6E-trienoic acid], for which the values for the concentration for a half-maximal effect (EC50) on RARβ and on RXRγ were 563 nM and 53 nM, respectively. Further, on RARβ, the Emax was 24%. The Ki at RXRβ stood at 625 nM; at RARγ, 4.7 µM. Also, on RXRγ, the “RXR Trans. efficacy” value was 108%.

With `CC/C(=C(F)/C=C/C(C)=C/C(=O)O)c1cc2c(cc1OC)OC(C)(C)C=C2C(C)C` [Compound 130, 6-Fluoro-7-(4-isopropyl-7-methoxy-2,2-dimethyl-2H-chromen-6-yl)-3-methyl-nona-2E,4E,6E-trienoic acid], the 50% effective concentration (EC50) on RARβ was 65 nM; at RXRγ, 0.6 nM. The Emax at RARβ came out at 31%. Moreover, the inhibition constant (Ki) was found to be 24 nM at RXRβ and 2.7 µM on RARγ. In addition, on RXRγ, the “RXR Trans. efficacy” value came out at 86%.

As to `CCOc1cc2c(cc1\C(C)=C(F)/C=C/C(C)=C/C(=O)O)C(C(C)(C)C)=CCC2(C)C` [Compound A-82, (2E,4E,6E)-6-Fluoro-3-(4,4-dimethyl-6-ethoxy-1-tert-butyl-3,4 dihydronaphthalen-7-yl)-3-methyl-2,4,6-octa-trienoic acid], at RARβ, the EC50 is 170 nM and the Emax came out at 9%. For the same compound, the Ki at RXRβ was determined as 14 nM. Moreover, the inhibitory constant (Ki) at RARγ was 1.4 µM. Moreover, on RXRγ, the concentration giving a half-maximal response (EC50) worked out at 2 nM and the “RXR Trans. efficacy” value was 31%.

Broadly, the Kd is the free concentration of one partner at which half of the binding sites on the other are occupied at equilibrium, for simple one-to-one binding. As to `CCOc1c(\C(CC)=C(F)/C=C/C(C)=C/C(=O)O)cc2c(c1Br)C(C)(C)CC=C2C(C)CC` (centres unmarked) [Compound A-176, (2E,4E,6E)-7-(4-Bromo-8-sec-butyl-3-ethoxy-5,5-methyl-5,6-dihydro-naphthalen-2-yl)-6-fluoro-3-methyl-nona-2,4,6-trienoic acid], at RARβ, the half-maximal effective concentration (EC50) was determined as 14 nM and the Emax worked out at 19%. In addition, the Kd on RXRβ is 23 nM. For the same compound, the Kd at RARγ amounted to 517 nM. Further, at RXRγ, the concentration for a half-maximal effect (EC50) stood at 3 nM and the “RXR Trans. efficacy” value worked out at 53%.

In the case of `CCOc1c(\C(CC)=C(F)/C=C/C(C)=C/C(=O)O)cc2c(c1Br)C(C)(C)CC=C2C(C)C` [Compound A-170, (2E,4E,6E)-7-(4-Bromo-3-ethoxy-8-isopropyl-5,5-dimethyl-5,6-dihydro-naphthalen-2-yl)-6-fluoro-3-methyl-nona-2,4,6-trienoic acid], the 50% effective concentration (EC50) stood at 3.5 nM at RARβ and 0.4 nM at RXRγ. Further, the Emax on RARβ is 8%. Besides, the equilibrium dissociation constant (Kd) on RXRβ was found to be 14 nM; on RARγ it was 507 nM. Further, the “RXR Trans. efficacy” value at RXRγ amounted to 53%.
